Experimental data from patent publication US10471054B2, “CDK1 inhibitors of acetyl chrysin mannich base derivatives, synthesis and use thereof” (priority 2016, dated 2019).
Converted amounts (≈) assume the structure as drawn. Like-named read-outs stand apart in the source and are kept apart here.

Columns and labels:
[1] = Pharmacokinetics by oral in monkey (urine drug concentration-time curve); type: in vivo; conditions: for Tmax: po
Procedure: Chromatographic conditions and the system applies: with C18 chromatographic column (acid the tall secretory effect, 5 μm, 4.6*150 mm), in acetonitrile-methanol-water-mesylate (25:20:55:0.15) as mobile phase, detection UV 283 nm, the velocity 1 ml/min, and the sample volume 20 μl. The theoretical plate number is not less than 2000 according to CH-j peak.
Sample solution: after the macaques were drugged, the catheter was inserted. The urine by oral CH-j 5 mg/kg is collected, added the methanol at 1:4 (v:v), centrifuge and remove the liquid to measure. Control solution is CH-j methanol solution 5 μg/ml. The log P of CH-j is larger, the fat solubility strong, and absorption distribution in the body very rapid, the urine drug concentration-time curve consistent with the typical two-compartment model. Tmax1, 1.3 h, Cmax1 is […]. […] The apparent distribution volume (Vd) 42 L, mainly distributed in body fluid (BA-j Vd 12.6 L, mainly distributed in blood. See Fitoterapia, 2015, 107: 36-34)
FIG. 5: The concentration of urine drug concentration-time curve in monkey (n=6) by CH-j oral 5 mg/kg, X-coordinate is oral CH-j time (h) and Y-coordinate is the concentration of CH-j (μM).

BGC-823 = test: PI staining flow cytometry, cell cycle; type: cell-based; conditions: 24 h
Source text: PI specificity is combined with DNA, and the fluorescence intensity is in a good linear relationship with the combination of PI. After cell fixation, PI staining was used for quantitative analysis of DNA content in cells by flow cytometry. Since the amount of DNA in different cell cycles varies, it can be determined that the drug actions on the cell cycle. In cell apoptosis, there are many characteristic changes in the cell and molecular level, and the most characteristic of the change of nucleus is the change of nucleus. Due to activate apoptosis cells, DNA degradation, reduce the cell DNA, and therefore can be in the GO/G1 peak appeared before a diploid apoptosis peak (sub-G1), […] pyrolysis peak integer times of DNA, no less than […] pyrolysis peak.
In addition, high concentrations of drugs can also reduce the proportion of S stage cells.
FIG. 3-2 PI staining results for BGC-823.

MCF-7 = test: Anti-cancer cells proliferation activity (MTT, 48 h); type: cell-based; conditions: Homo sapiens, MCF7, MCF-7, MTT
Source text: (§1) Anti-cancer cells proliferationactivity of in vitro CH-j and CH-f were shown in TABLE 2 for the results of the screening of 5 cancers cells.

PC-3 = test: as above; type: cell-based; conditions: Homo sapiens, PC-3, MTT
Source text: as §1

Hep G2 = test: as above; type: cell-based; conditions: Homo sapiens, HepG2
Source text: as §1

H-460 = test: as above; type: cell-based; conditions: Homo sapiens, NCI-H460, H-460, MTT
Source text: as §1

[2] = Main metabolic pathways, glucose aldehyde acid metabolism; conditions: in vivo
Source text: (I) Neutral degradation in normal cells: CH-j is hydrolyzing into Hydroxy-phenyl-acetic acid (M152), 1-(2, 4, 6-Trihydroxy-phenyl)-ethanone (M168) and N-hydroxymethyl-piperidin-4-one (M129) as the main metabolic pathways.
Flavopiridol, p276-00 and Vorciclib of Chrysin-organic amine derivatives, duo to mainly C7-glucose aldehyde acidification metabolites by oral, only a small amount is into the tissue cells. In the tissue cells, it is not easy to be metabolized in part because of the organic amine substituents, thus producing strong cytotoxicity. […] CH-j can enhance I phase metabolism and inhibit II phase metabolism. […] [Scientific Reports, 2015, 5: 13626; Fitoterapia, 2015, 107:36-34.]

H-460 xenograft = H-460 xenograft in BALB/c nude mouse; type: in vivo; conditions: compared with before
Procedure: The anti-tumor effect of the BALB/c nude mouse model of the non-small cell lung cancer (H-460) was determined by the method [Scientific Reports, 2015, 5: 13626], and the results were shown in FIG. 7. 5 or 10 mg/kg of CH-j, for twice daily 10 days were compared with the control group.
FIG. 7: H-460 carcinoma in male BALB/c nude mice xenograft model, two times a day to fill the stomach to CH-j 5 and 10 mg/kg, for 10 days in a row, X-coordinate is experimental time (days), and Y-coordinate vertical volume of H-460 carcinoma (mm^3).

BGC-823 and Hep G2 = test: H2O2 level in cancer cells, PF1-H2O2 fluorescent probe; type: cell-based; conditions: BGC-823 and Hep G2, CH-j 5-10 μM
Procedure: The cells are cancer cells (MCF-7, GBC-823, Hep G2) and normal cells (Liver, COS-7, PBMCs). According to the literature [Scientific Reports, 2015, 5: 13626; Anti-cancer Agents in Medicinal Chemistry, 2016, 16: 914-924.], in vitro cultured cells was given to CH-j 25 μM for 3.5 h, added PF1-H2O2 selective fluorescence probe 10 μM for 0.5 h and detected the concentration of H2O2 in cells, and performed fluorescence imaging by results shown in FIG. 1.
FIG. 1-2: The effect of CH-j/BA-j to Hep G2 and BGC-382 in the levels of H2O2: in which the X-coordinate is the concentration of CH-j/BA-j concentration (μM), and Y-coordinate is the intracellular levels of H2O2 (μM) for 4 h with PF1-H2O2 10 μM by Fluorescence Microplater Reader (488 nm/525 nm).

[3] = Solubility in Octanol, water and pH media; type: physicochemical
[4] = oral 5 mg/kg, monkey, urine drug concentration
[5] = oral, monkey (n = 6), 3 mg/kg in Table 4, 5 mg/kg in text

In the case of CC(=O)c1c(O)c(CN2CCC(O)CC2)c2oc(-c3ccccc3)cc(=O)c2c1O [CH-j, 6-Acetyl-5,7-dihydroxy-8-(4-hydroxy-piperidin-1-ylmethyl)-2-phenyl-chromen-4-one], the “Maximum drug concentration, times higher than Chrysin” value ([1]; monkey, in vivo) is reported as “about 40 times”, the Cmax1 [1, 4] is reported as 26.4 µM and the “Cmax2, redistributive period” value [1, 4] is reported as 13.2 µM. The V d [1, 5] was 42 L, the t1/2β [1, 5] was 6.2 h and the Tmax ([1]; rhesus, monkey, urine, monkey (n = 6), 3 mg/kg in Table 4, 5 mg/kg in text, read-out: T max (Tmax1)) was 1.3 h. For the same compound, the Tmax ([1]; rhesus, monkey, urine, monkey (n = 6), 3 mg/kg in Table 4, 5 mg/kg in text, read-out: T max, redistributive period (Tmax2)) was 9 h, the concentration at 24 h ([1]; rhesus, urine, oral 5 mg/kg, monkey) was < 3 µM and the Cmax ([1]; rhesus, urine, oral, monkey (n = 6), 3 mg/kg in Table 4, 5 mg/kg in text) was 26.4 µM. For the same compound, the “Cell cycle effect by PI staining” value (BGC-823) was “block the BGC-823 in G1, G2 phase”, the IC50 (MCF-7) was 5.7 ± 1.24 µM and the IC50 (PC-3) was 6.2 ± 1.16 µM. For the same compound, the IC50 (Hep G2) was 6 ± 1.5 µM, the IC50 (H-460) was 6.5 ± 1.13 µM and the “Dependence of metabolic pathway on CYP3A4” value [2] was “independent of CYP3A4”. For the same compound, the “Reduction rate of H-460 tumor” value (H-460 xenograft; 5 mg/kg twice daily 10 days) was 90.5%±9.2%, the “Reduction rate of H-460 tumor” value (H-460 xenograft; 10 mg/kg twice daily 10 days) was 95.2%±11.6% and the “Amount of H2O2 released, fold” value (BGC-823 and Hep G2) was “about 4 times”. The “Maximum level of H2O2 in cells” value (BGC-823 and Hep G2; 4 h) was 35 to 45 µM, the BCS class [3] was “BCS II” and the “Solubility in Octanol relative to BA analogue” value ([3]; CH-j vs BA-j, CH-f vs BA-f, 37° C.) was “about 6 times”. For the same compound, the solubility ([3]; organic solvent or mixture, Octanol, 37° C., read-out: Solubility in Octanol) was 2420 µg/mL (≈ 5910 µM), the solubility ([3]; pH 1.2, simulated gastric fluid, 0.1M HCl (pH1.2), 37° C., read-out: Solubility) was 574 µg/mL (≈ 1400 µM) and the solubility ([3]; pH 4.5, aqueous buffer, 0.05M NaAC-HAC buffered solution (pH4.5), 37° C., read-out: Solubility) was 528 µg/mL (≈ 1290 µM). The solubility ([3]; pH 6.8, aqueous buffer, PBS (pH6.8), 37° C., read-out: Solubility) was 78 µg/mL (≈ 191 µM) and the solubility ([3]; water, 37° C., read-out: Solubility in H2O) was 56 µg/mL (≈ 137 µM).
